Patent publication US20050197350A1, “Novel quinoline, tetrahydroquinazoline, and pyrimidine derivatives and methods of treatment related to the use thereof” (TAISHO PHARMACEUTICAL CO., LTD., priority 2003, published 2005)

Test system: MCH receptors
Experiment: MCH receptor activity class (method not given)
Details: class by percent of control at 10^-7 M or IC50

Compound	class
CN(C)c1ccnc(N[C@H]2CC[C@@H](NC(=O)/C=C/c3ccccc3)CC2)n1 [compound 244]	3 (Class 3 The value of percent of control at 10^−7 M was more than 60% or the value of IC50 was more than 200 nM.)
CN(C)c1ccnc(N[C@H]2CC[C@@H](NC(=O)c3ccc(Cl)c([N+](=O)[O-])c3)CC2)n1 [compound 245, 4-chloro-N-(cis-4-{[4-(dimethylamino)pyrimidin-2-yl]amino}cyclohexyl)-3-nitrobenzamide]	1 (Class 1: The value of percent of control at 10^−7 M was less than 40% or the value of IC50 was less than 50 nM.)
CN(C)c1ccnc(N[C@H]2CC[C@@H](NC(=O)Cc3ccc(Cl)cc3)CC2)n1 [compound 246]	3 (Class 3 The value of percent of control at 10^−7 M was more than 60% or the value of IC50 was more than 200 nM.)
CN(C)c1ccnc(N[C@H]2CC[C@@H](NC(=O)c3cccc(C#N)c3)CC2)n1 [compound 247]	3 (Class 3 The value of percent of control at 10^−7 M was more than 60% or the value of IC50 was more than 200 nM.)
CN(C)c1ccnc(N[C@H]2CC[C@@H](NC(=O)c3cc(Cl)cc(Cl)c3)CC2)n1 [compound 248]	1 (Class 1: The value of percent of control at 10^−7 M was less than 40% or the value of IC50 was less than 50 nM.)
CN(C)c1ccnc(N[C@H]2CC[C@@H](NC(=O)c3ccc(Cl)c(Cl)c3)CC2)n1 [compound 249]	1 (Class 1: The value of percent of control at 10^−7 M was less than 40% or the value of IC50 was less than 50 nM.)
CN(C)c1ccnc(N[C@H]2CC[C@@H](NC(=O)C(c3ccccc3)c3ccccc3)CC2)n1 [compound 250, N-(cis-4-{[4-(dimethylamino)pyrimidin-2-yl]amino}cyclohexyl)-2,2-diphenylacetamide]	2 (Class 2: The value of percent of control at 10^−7 M was from 40% to 60% or the value of IC′50 was from 50 nM to 200 nM.)
CN(C)c1ccnc(N[C@H]2CC[C@@H](NC(=O)c3ccc(F)c(F)c3)CC2)n1 [compound 251, N-(cis-4-{[4-(dimethylamino)pyrimidin-2-yl]amino}cyclohexyl)-3,4-difluorobenzamide]	1 (Class 1: The value of percent of control at 10^−7 M was less than 40% or the value of IC50 was less than 50 nM.)
CN(C)c1ccnc(N[C@H]2CC[C@@H](NC(=O)c3cc(F)cc(F)c3)CC2)n1 [compound 252, N-(cis-4-{[4-(dimethylamino)pyrimidin-2-yl]amino}cyclohexyl)-3,5-difluorobenzamide]	2 (Class 2: The value of percent of control at 10^−7 M was from 40% to 60% or the value of IC′50 was from 50 nM to 200 nM.)
COc1ccc(OC)c(CC(=O)N[C@H]2CC[C@@H](Nc3nccc(N(C)C)n3)CC2)c1 [compound 253]	3 (Class 3 The value of percent of control at 10^−7 M was more than 60% or the value of IC50 was more than 200 nM.)
CCSc1ncccc1C(=O)N[C@H]1CC[C@@H](Nc2nccc(N(C)C)n2)CC1 [compound 254]	3 (Class 3 The value of percent of control at 10^−7 M was more than 60% or the value of IC50 was more than 200 nM.)
CN(C)c1ccnc(N[C@H]2CC[C@@H](NC(=O)c3ccc(F)cc3)CC2)n1 [compound 255, N-(cis-4-{[4-(dimethylamino)pyrimidin-2-yl]amino}cyclohexyl)-4-fluorobenzamide]	3 (Class 3 The value of percent of control at 10^−7 M was more than 60% or the value of IC50 was more than 200 nM.)
CN(C)c1ccnc(N[C@H]2CC[C@@H](NC(=O)c3cc(F)cc(C(F)(F)F)c3)CC2)n1 [compound 256, N-(cis-4-{[4-(dimethylamino)pyrimidin-2-yl]amino}cyclohexyl)-3-fluoro-5-(trifluoromethyl)benzamide]	2 (Class 2: The value of percent of control at 10^−7 M was from 40% to 60% or the value of IC′50 was from 50 nM to 200 nM.)
CN(C)c1ccnc(N[C@H]2CC[C@@H](NC(=O)c3cc(F)c(Cl)cc3Cl)CC2)n1 [compound 257]	3 (Class 3 The value of percent of control at 10^−7 M was more than 60% or the value of IC50 was more than 200 nM.)
CCCCCC(=O)N[C@H]1CC[C@@H](Nc2nccc(N(C)C)n2)CC1 [compound 258]	3 (Class 3 The value of percent of control at 10^−7 M was more than 60% or the value of IC50 was more than 200 nM.)
CN(C)c1ccnc(N[C@H]2CC[C@@H](NC(=O)c3ccc(I)cc3)CC2)n1 [compound 259]	3 (Class 3 The value of percent of control at 10^−7 M was more than 60% or the value of IC50 was more than 200 nM.)
CSc1ncccc1C(=O)N[C@H]1CC[C@@H](Nc2nccc(N(C)C)n2)CC1 [compound 260]	3 (Class 3 The value of percent of control at 10^−7 M was more than 60% or the value of IC50 was more than 200 nM.)
Cc1ccc(C(=O)N[C@H]2CC[C@@H](Nc3nccc(N(C)C)n3)CC2)cc1[N+](=O)[O-] [compound 261, N-(cis-4-{[4-(dimethylamino)pyrimidin-2-yl]amino}cyclohexyl)-4-methyl-3-nitrobenzamide]	2 (Class 2: The value of percent of control at 10^−7 M was from 40% to 60% or the value of IC′50 was from 50 nM to 200 nM.)
CN(C)c1ccnc(N[C@H]2CC[C@@H](NC(=O)c3cccc([N+](=O)[O-])c3)CC2)n1 [compound 262, N-(cis-4-{[4-(dimethylamino)pyrimidin-2-yl]amino}cyclohexyl)-3-nitrobenzamide]	1 (Class 1: The value of percent of control at 10^−7 M was less than 40% or the value of IC50 was less than 50 nM.)

Compound	class
CN(C)c1ccnc(N[C@H]2CC[C@@H](NC(=O)Cc3ccccc3)CC2)n1 [compound 263]	3 (Class 3 The value of percent of control at 10^−7 M was more than 60% or the value of IC50 was more than 200 nM.)
CN(C)c1ccnc(N[C@H]2CC[C@@H](NC(=O)C3C[C@H]3c3ccccc3)CC2)n1 (some centres unmarked) [compound 264]	3 (Class 3 The value of percent of control at 10^−7 M was more than 60% or the value of IC50 was more than 200 nM.)
CN(C)c1ccnc(N[C@H]2CC[C@@H](NC(=O)c3ccc4c(c3)OCO4)CC2)n1 [compound 265]	3 (Class 3 The value of percent of control at 10^−7 M was more than 60% or the value of IC50 was more than 200 nM.)
Cc1cccc(C(=O)N[C@H]2CC[C@@H](Nc3nccc(N(C)C)n3)CC2)c1 [compound 268, N-(cis-4-{[4-(dimethylamino)pyrimidin-2-yl]amino}cyclohexyl)-3-methylbenzamide]	2 (Class 2: The value of percent of control at 10^−7 M was from 40% to 60% or the value of IC′50 was from 50 nM to 200 nM.)
Cc1ccc(C(=O)N[C@H]2CC[C@@H](Nc3nccc(N(C)C)n3)CC2)cc1 [compound 269]	3 (Class 3 The value of percent of control at 10^−7 M was more than 60% or the value of IC50 was more than 200 nM.)
CN(C)c1ccnc(N[C@H]2CC[C@@H](NC(=O)c3cccs3)CC2)n1 [compound 270]	3 (Class 3 The value of percent of control at 10^−7 M was more than 60% or the value of IC50 was more than 200 nM.)
CN(C)c1ccnc(N[C@H]2CC[C@@H](NC(=O)Cc3cccs3)CC2)n1 [compound 271]	3 (Class 3 The value of percent of control at 10^−7 M was more than 60% or the value of IC50 was more than 200 nM.)
CN(C)c1ccnc(N[C@H]2CC[C@@H](NC(=O)c3cccc(OC(F)(F)F)c3)CC2)n1 [compound 272, N-(cis-4-{[4-(dimethylamino)pyrimidin-2-yl]amino}cyclohexyl)-3-(trifluoromethoxy)benzamide]	1 (Class 1: The value of percent of control at 10^−7 M was less than 40% or the value of IC50 was less than 50 nM.)
CN(C)c1ccnc(NC2CCC(NC(=O)OCc3ccccc3)CC2)n1 (centres unmarked) [compound 273]	3 (Class 3 The value of percent of control at 10^−7 M was more than 60% or the value of IC50 was more than 200 nM.)
CN(C)c1ccnc(NC2CCC(NC(=O)OCc3ccc([N+](=O)[O-])cc3)CC2)n1 (centres unmarked) [compound 274]	3 (Class 3 The value of percent of control at 10^−7 M was more than 60% or the value of IC50 was more than 200 nM.)
Cc1cc(C(=O)N[C@H]2CC[C@@H](Nc3nccc(N(C)C)n3)CC2)ccc1Br [compound 275, 4-bromo-N-(cis-4-{[4-(dimethylamino)pyrimidin-2-yl]amino}cyclohexyl)-3-methylbenzamide]	1 (Class 1: The value of percent of control at 10^−7 M was less than 40% or the value of IC50 was less than 50 nM.)
CN(C)c1ccnc(N[C@H]2CC[C@@H](NC(=O)c3cccc(I)c3)CC2)n1 [compound 276, N-(cis-4-{[4-(dimethylamino)pyrimidin-2-yl]amino}cyclohexyl)-3-iodobenzamide]	1 (Class 1: The value of percent of control at 10^−7 M was less than 40% or the value of IC50 was less than 50 nM.)
CN(C)c1ccnc(N[C@H]2CC[C@@H](NC(=O)c3cccc(Cl)c3F)CC2)n1 [compound 277]	3 (Class 3 The value of percent of control at 10^−7 M was more than 60% or the value of IC50 was more than 200 nM.)
Cc1ccc(C(=O)N[C@H]2CC[C@@H](Nc3nccc(N(C)C)n3)CC2)c(F)c1F [compound 278]	3 (Class 3 The value of percent of control at 10^−7 M was more than 60% or the value of IC50 was more than 200 nM.)
CN(C)c1ccnc(N[C@H]2CC[C@@H](NC(=O)c3ccc(F)cc3Cl)CC2)n1 [compound 279]	3 (Class 3 The value of percent of control at 10^−7 M was more than 60% or the value of IC50 was more than 200 nM.)
CN(C)c1ccnc(N[C@H]2CC[C@@H](NC(=O)c3ccc(F)c(Cl)c3F)CC2)n1 [compound 280]	3 (Class 3 The value of percent of control at 10^−7 M was more than 60% or the value of IC50 was more than 200 nM.)
CN(C)c1ccnc(N[C@H]2CC[C@@H](NC(=O)CSc3ccccc3)CC2)n1 [compound 281]	3 (Class 3 The value of percent of control at 10^−7 M was more than 60% or the value of IC50 was more than 200 nM.)
CN(C)c1ccnc(N[C@H]2CC[C@@H](NC(=O)c3cccc(C(F)(F)F)c3F)CC2)n1 [compound 282]	3 (Class 3 The value of percent of control at 10^−7 M was more than 60% or the value of IC50 was more than 200 nM.)
CN(C)c1ccnc(N[C@H]2CC[C@@H](NC(=O)c3cc(C(F)(F)F)ccc3F)CC2)n1 [compound 283]	3 (Class 3 The value of percent of control at 10^−7 M was more than 60% or the value of IC50 was more than 200 nM.)
